Test results taken from patent US11135193B2, “Composition containing monoacetyldiacylglycerol compound as active ingredient for preventing or treating asthma” (Enzychem Lifesciences Corporation, priority 2013, dated 2021).
Where two headings read alike, the source gives them in different places. Marks after values point to notes of the source that are not given here.

Experiments:
[1] = test system: EL-4 cells; details: mouse, 24 h
Method: (§2) EL-4 cells that are mouse T lymphoma cells were suspended in 10% fetal bovine serum-containing RPMI medium (Gibco) at a concentration of 5×10^4 cells/ml, and 100 μl of the cell suspension was seeded into each well of a 96-well plate and cultured for 12 hours. Next, the cell culture was treated with monoacetyldiacylglycerol (MADG) compounds at the concentrations shown in Table 1 below, and was then additionally cultured for 24 hours. Next, according to the instruction provided in a CCK-8 kit (Dojindo) capable of counting cells, 10 μl of CCK-8 solution was added to the kit and allowed to react for 30 minutes to 4 hours, and then the absorbance (OD) at 570 nm was measured. In equation 1, the negative control group indicates a cell culture treated with 0.2% DMSO. […] Cell viability (%)=[(OD 570 nm value of MADC-treated group)/(OD 570 nm value of negative control group)]×100 Equation 1

[2] = test system: IL-4 mRNA; experiment: Inhibition of PMA-induced expression of IL-4 mRNA in EL-4 cells (PCR); assay type: cell-based, mouse; details: 20 μg/mL, PMA 1 ng/mL; for Inhibition (%) of IL-4 mRNA expression: compared to PMA-treated group
Method: Based on the results of Example 1, each of the monoacetyldiacylglycerol compounds was added to EL-4 cells at a concentration of 20 μg/mL, and the effect thereof on the inhibition of PMA-induced expression of IL-4 mRNA in the EL-4 cells was measured. Specifically, the expression level of IL-4 mRNA induced by PMA (1 ng/mL) was measured using real-time polymerase chain reaction (real-time PCR) and quantitative real time polymerase chain reaction (qPCR). For cell preparation, EL-4 cells were seeded into a 6-well plate at a concentration of 1×10^6 cells/well and cultured for 12 hours, after which the cells were treated with each of the monoacetyldiacylglycerol compounds at a concentration of 20 μg/mL for 1 hour and treated with PMA at a concentration of 1 ng/ml, followed by culture for 12 hours. Total RNA was extracted from the cells using Trizol B (Invitrogen, USA) and quantified, and then cDNA was synthesized from the total RNA using an Omniscript RT kit (Qiagen, GmbH, Hilden, Germany). The synthesized cDNA as a template was mixed with each of the IL-4 and GAPDH primers shown in Table 2 below and was subjected to PCR using a PCR mix (PCR Master Mix, Bioneer, Korea) under the following conditions: denaturation at 94° C. for 5 minutes; and then 30 cycles, each consisting of 30 sec at 95° C., 45 sec at 60° C., and 45 sec at 72° C.; followed by enzyme inactivation at 72° C. for 10 minutes. The results of measuring the percent inhibition of expression of IL-4 mRNA in EL-4 cells as described above are shown in Table 3 below. The designation of each of the samples shown in Table 3 below is as described with respect to Table 1 above.

[3] = test system: EL-4 cells; experiment: Cytotoxicity of monoacetyldiacylglycerol compounds in EL-4 cells (CCK-8 cell viability); details: 24 hours
Method: as §2

[4] = test system: ovalbumin-induced asthma Balb/c mice; experiment: Airway hyperresponsiveness (Pehn, plethysmography) in ovalbumin-induced asthma model; assay type: in vivo, mouse; details: 30 mg/kg oral
Method: (§1) 6-week-old female SPF (specific pathogen-free) Balb/c mice (average weight: 20 g) were purchased from Samtako (Korea). The animals were sufficiently fed with solid feed (antibiotic-free, Samyang Feed Co.) and water until the start point of the experiment, and acclimated at a temperature of 22±2° C., a humidity of 55±15%, and a 12-hr light/12-hr dark cycle for 1 week, and then used in experiments. After 1 week of the acclimation period as described above, the mice were sensitized by intraperitoneal administration of a suspension of 2 mg of aluminum oxide (A8222, Sigma-Aldrich, MO, USA) and 20 μg of ovalbumin (A5503, Sigma-Aldrich) in 200 μl of phosphate buffered saline at two-week intervals. During a period from day 21 to day 23 after the first intraperitoneal administration of ovalbumin, 1% ovalbumin was inhaled into the mice for 30 minutes using an ultrasonic nebulizer (NE-U12, Omron Corp., Japan). At 24 hours after the last ovalbumin challenge, the airway hyperresponsiveness of the mice was measured, and after 48 hours, the mice were anesthetized by intraperitoneal administration of Pentobarbital (50 mg/kg, Entobal, Hanil, Korea). Then, blood was collected through the saphenous vein, and the mice were subjected to tracheostomy. Next, each of the mice was subjected to bronchoalveolar lavage with a total of 1.4 ml of PBS to collect an analytical sample. […] The drug and the sample were administered orally during a period from day 18 to day 23 after the first ovalbumin […] (FIG. 1). Seven mice were used per group.
To measure airway hyperresponsiveness that is one of the major features of asthma, one chamber plethysmography (All Medicus, Korea) was used. The degree of airway resistance was evaluated by measuring enhanced pause (Pehn). For measurement of Pehn, the basis value was measured in a normal breathing state, and then PBS was inhaled for 3 minutes using an ultrasonic nebulizer, after which the Pehn value was measured for 3 minutes.

[5] = test system: ovalbumin-induced asthma Balb/c mice; experiment: Inflammatory cell count in bronchoalveolar lavage fluid, ovalbumin-induced asthma model; assay type: in vivo, mouse; details: BALF; 30 mg/kg oral
Method: as §1
An increase in the number of eosinophils is one of the major features of asthma. Thus, in order to measure the number of eosinophils, the following experiment was performed. The bronchoalveolar lavage fluid from each mouse was stained with trypan blue immediately after collection, and the number of total cells (excluding dead cells) was calculated using a hemocytometer.

[6] = test system: interleukins (IL-4, IL-5 and IL-13); experiment: Th2 cytokines in bronchoalveolar lavage fluid (ELISA), ovalbumin-induced asthma model; assay type: in vivo, mouse; details: BALF; 30 mg/kg oral
Method: as §1
The production of interleukins (IL-4, IL-5 and IL-13) in the bronchoalveolar lavage fluid isolated from each mouse was measured using a commercially available enzyme-linked immunosorbent assay (ELISA) kit (R&D System, USA). The analysis of each cytokine was performed according to the manufacturer's instruction, and the absorbance at 450 nm was measured using an ELISA reader (Molecular Devices, USA).

[7] = test system: serum IgE and ovalbumin-specific IgE; experiment: Serum IgE and ovalbumin-specific IgE (ELISA), ovalbumin-induced asthma model; assay type: in vivo, mouse; details: 30 mg/kg oral
Method: as §1
The blood collected through the saphenous vein was incubated at room temperature for 30 minutes, and then centrifuged (3000 rpm, 15 min) to obtain serum. For measurement of serum IgE and ovalbumin-specific IgE, ELISA was used. IgE was measured using commercially available IgE (Biolegend Ins., USA). For measurement of ovalbumin-specific IgE, in a 96-well flat bottom ELISA plate, ovalbumin was dissolved in 0.1 M NaHCO3 buffer (pH 8.3) at a concentration of 20 μg/mL and incubated at 4° C. for 16 hours. Next, PBS containing 1% bovine serum albumin (BSA) was added to suppress nonspecific reactions. The serum sample was diluted at 1:400, allowed to react at room temperature for 2 hours, and then washed with PBS containing 0.05% Tween 20. Horseradish peroxidase (HRP)-conjugated goat […] polyclonal A was diluted 4000-fold and allowed to react at room temperature for 1 hour, and then color development was performed using 3,3′5,5′-tetramethylbenzidine substrate.

CCCCCCCCCCCCCCCC(=O)OCC(COC(C)=O)OC(=O)CCCCCCCCCCCCCCC (stereo not drawn) [PPAG, 1-palmitoyl-2-palmitoyl-3-acetylglycerol]
EL-4 cell viability (%, mean ± SD) ([1]; 5 μg/ml): 106.28 ± 1.39% | EL-4 cell viability (%, mean ± SD) ([1]; 10 μg/ml): 105.84 ± 1.38% | EL-4 cell viability (%, mean ± SD) ([1]; 20 μg/ml): 96.59 ± 0.69%

CCCCCCCCCCCCCCCCCC(=O)OC(COC(C)=O)COC(=O)CCCCCCCCCCCCCCC (stereo not drawn) [PSAG, 1-palmitoyl-2-stearoyl-3-acetylglycerol]
EL-4 cell viability (%, mean ± SD) ([1]; 5 μg/ml): 98.46 ± 0.33% | EL-4 cell viability (%, mean ± SD) ([1]; 10 μg/ml): 100.66 ± 1.25% | EL-4 cell viability (%, mean ± SD) ([1]; 20 μg/ml): 103.30 ± 2.15%

CCCCC/C=C\C/C=C\CCCCCCCC(=O)OCC(COC(C)=O)OC(=O)CCCCCCCCCCCCCCCCC (stereo not drawn) [LSAG, 1-linoeoyl-2-stearoyl-3-acetylglycerol]
Expression level of IL-4 mRNA (percentage relative to PMA-treated group) [2]: 41.62 ± 17.61% | Inhibition (%) of IL-4 mRNA expression [2]: 58.38% | EL-4 cell viability (%, mean ± SD) ([3]; 5 μg/ml): 103.82 ± 1.80% | EL-4 cell viability (%, mean ± SD) ([3]; 10 μg/ml): 101.85 ± 1.00% | EL-4 cell viability (%, mean ± SD) ([3]; 20 μg/ml): 98.15 ± 1.82%

CCCCC/C=C\C/C=C\CCCCCCCC(=O)OCC(COC(C)=O)OC(=O)CCCCCCCCCCCCCCC (stereo not drawn) [LPAG, 1-linoeoyl-2-palmitoyl-3-acetylglycerol]
Expression level of IL-4 mRNA (percentage relative to PMA-treated group) [2]: 61.11 ± 27.49% | Inhibition (%) of IL-4 mRNA expression [2]: 38.89% | EL-4 cell viability (%, mean ± SD) ([3]; 5 μg/ml): 99.67 ± 1.15% | EL-4 cell viability (%, mean ± SD) ([3]; 10 μg/ml): 98.91 ± 0.50% | EL-4 cell viability (%, mean ± SD) ([3]; 20 μg/ml): 99.13 ± 1.18%

CCCCCCCC/C=C\CCCCCCCC(=O)OCC(COC(C)=O)OC(=O)CCCCCCCCCCCCCCCCC (stereo not drawn) [OSAG, 1-oleoyl-2-stearoyl-3-acetylglycerol]
EL-4 cell viability (%, mean ± SD) ([1]; 5 μg/ml): 102.62 ± 2.18% | EL-4 cell viability (%, mean ± SD) ([1]; 10 μg/ml): 100.98 ± 2.37% | EL-4 cell viability (%, mean ± SD) ([1]; 20 μg/ml): 100.22 ± 0.68%

CCCCCCCC/C=C\CCCCCCCC(=O)OC(COC(C)=O)COC(=O)CCCCCCCCCCCCCCC (stereo not drawn) [POAG, 1-palmitoyl-2-oleoyl-3-acetylglycerol]
EL-4 cell viability (%, mean ± SD) ([1]; 5 μg/ml): 106.94 ± 2.69% | EL-4 cell viability (%, mean ± SD) ([1]; 10 μg/ml): 106:39 ±1.19% | EL-4 cell viability (%, mean ± SD) ([1]; 20 μg/ml): 98.90 ± 1.16%

CC(C)(O)c1ccccc1CC[C@@H](SCC1(CC(=O)O)CC1)c1cccc(/C=C/c2ccc3ccc(Cl)cc3n2)c1 [Mon, montelukast, reference compound]
Pehn value ([4]; methacholine 0 mg/mL): 0.590 ± 0.07 | Pehn value ([4]; methacholine 12.5 mg/mL): 1.261 ± 0.29 | Pehn value ([4]; methacholine 25 mg/mL): 3.046 ± 0.61 | Pehn value ([4]; methacholine 50 mg/mL): 4.182 ± 0.99 | Inflammatory cell number, Eosinophils [5]: 54 ± 17.8* 10^5 per mouse | Inflammatory cell number, Lymphocytes [5]: 11 ± 10.6 10^5 per mouse | Inflammatory cell number, Macrophages [5]: 99 ± 21.4* 10^5 per mouse | Inflammatory cell number, Neutrophils [5]: 14 ± 5.2 10^5 per mouse | Inflammatory cell number, Total cells [5]: 179 ± 44.0* 10^5 per mouse | Th2 cytokines, IL-4 [6]: 18.69 ± 3.00 pg/mL | Th2 cytokines, IL-5 [6]: 22.74 ± 3.59 pg/mL | Th2 cytokines, IL-13 [6]: 81.42 ± 25.59 pg/mL | IgE [7]: 2.03 ± 0.49 µg/mL | OVA specific IgE [7]: 198.15 ± 42.65 µg/mL

CCCCCCCC/C=C\CCCCCCCC(=O)OCC(COC(C)=O)OC(=O)CCCCCCCCCCCCCCC (stereo not drawn) [OPAG, 1-oleoyl-2-palmitoyl-3-acetylglycerol]
EL-4 cell viability (%, mean ± SD) ([1]; 5 μg/ml): 98.04 ± 0.94% | EL-4 cell viability (%, mean ± SD) ([1]; 10 μg/ml): 98.91 ± 1.68% | EL-4 cell viability (%, mean ± SD) ([1]; 20 μg/ml): 99.56 ± 2.86%
